Laboratory results published in ChEMBL document CHEMBL1201862, “PubChem BioAssay data set” (2004).
Active and inactive are the calls of the source.

Assays:
[1] = target: Mitogen-activated protein kinase 10 (Homo sapiens, UniProt P53779); test: Dose response biochemical screening assay for inhibitors of c-Jun N-Terminal Kinase 3 (JNK3). [Related pubchem assays: 746 ]
[2] = Luminescence-based cell-based high throughput dose response assay to identify activators of the DAF-12 from the parasite S. stercoralis (ssDAF-12).; type: functional
[3] = target: T1, Oxysterols receptor LXR-beta (Homo sapiens, UniProt P55055); test: LXR agonists, Gal4 luciferase reporter, dose response, counter-screen for ssDAF-12 agonist project, cell-based, luminescence, HEK293, S. stercoralis campaign (AID 720737); type: functional; conditions: read-out: IC50 (the source's name)
T1 sequence (P55055 whole entry): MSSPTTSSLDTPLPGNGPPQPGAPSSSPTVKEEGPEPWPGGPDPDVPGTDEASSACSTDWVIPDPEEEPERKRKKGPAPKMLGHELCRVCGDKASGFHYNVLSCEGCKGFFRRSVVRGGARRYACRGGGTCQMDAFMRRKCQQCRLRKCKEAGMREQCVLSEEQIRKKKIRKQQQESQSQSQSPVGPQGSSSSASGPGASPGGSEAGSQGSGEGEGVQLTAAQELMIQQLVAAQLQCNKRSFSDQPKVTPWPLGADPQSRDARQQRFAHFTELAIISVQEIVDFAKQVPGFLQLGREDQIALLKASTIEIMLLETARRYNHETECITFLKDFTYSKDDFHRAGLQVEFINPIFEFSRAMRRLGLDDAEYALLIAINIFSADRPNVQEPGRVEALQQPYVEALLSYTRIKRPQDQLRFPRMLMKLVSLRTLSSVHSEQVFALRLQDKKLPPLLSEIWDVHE

Cytochrome P450 2C19 = Cytochrome P450 2C19 (Homo sapiens, UniProt P33261); test: qHTS Assay for Inhibitors and Substrates of Cytochrome P450 2C19. [Related pubchem assays: 410 ]; type: ADME; conditions: read-out: Potency
Cytochrome P450 2C19, sequence (P33261 whole entry): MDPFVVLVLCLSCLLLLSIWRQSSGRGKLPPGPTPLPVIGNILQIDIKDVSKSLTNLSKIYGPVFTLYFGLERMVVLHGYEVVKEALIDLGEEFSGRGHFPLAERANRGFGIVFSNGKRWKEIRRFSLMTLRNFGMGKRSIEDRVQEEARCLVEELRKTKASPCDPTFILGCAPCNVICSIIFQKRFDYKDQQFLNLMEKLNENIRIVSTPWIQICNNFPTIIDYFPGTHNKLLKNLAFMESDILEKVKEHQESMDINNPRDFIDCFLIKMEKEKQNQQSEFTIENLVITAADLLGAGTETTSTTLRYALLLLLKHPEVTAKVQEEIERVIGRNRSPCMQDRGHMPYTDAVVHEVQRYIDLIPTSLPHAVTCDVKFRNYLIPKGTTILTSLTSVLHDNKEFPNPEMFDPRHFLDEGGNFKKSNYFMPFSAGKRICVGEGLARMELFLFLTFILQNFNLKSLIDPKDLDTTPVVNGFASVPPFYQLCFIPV

[4] = inhibitors of intracellular T. cruzi replication, confirmation, NIH3T3 host cells, beta-gal luminescence (AID 2044); type: functional, cell-based;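 note: intracellular parasites grown in NIH/3T3 mouse fibroblasts as host cells; luminescent beta-galactosidase reporter signal from transgenic T. cruzi replicating inside host cells; inhibitors lower the luminescence signal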
[5] = cytotoxicity toward NIH3T3 fibroblasts, dose response, counter-screen, cell-based, ATP luminescence, mouse fibroblasts (AID 2010); type: functional;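 note: cells exposed to compound for about 90 hours before reading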
[6] = target: T2, Dual specificity protein phosphatase 6 (Rattus norvegicus, UniProt Q64346); test: MKP-3 phosphatase inhibitors, primary screen, biochemical, rat enzyme, in vitro (AID 425)
T2 sequence (Q64346 whole entry): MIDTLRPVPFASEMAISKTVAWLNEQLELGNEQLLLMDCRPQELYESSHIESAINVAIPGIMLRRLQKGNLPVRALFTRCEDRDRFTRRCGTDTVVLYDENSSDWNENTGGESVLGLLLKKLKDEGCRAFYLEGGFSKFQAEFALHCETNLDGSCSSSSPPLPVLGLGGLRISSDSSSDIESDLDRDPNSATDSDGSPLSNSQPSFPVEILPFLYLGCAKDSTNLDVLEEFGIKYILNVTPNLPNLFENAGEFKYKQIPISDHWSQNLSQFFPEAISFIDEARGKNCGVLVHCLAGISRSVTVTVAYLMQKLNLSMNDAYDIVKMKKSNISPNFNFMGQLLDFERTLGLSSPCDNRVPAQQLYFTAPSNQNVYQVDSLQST

Bcl-2-related protein A1 = target: T3, Bcl-2-related protein A1 (Mus musculus, UniProt Q07440); type: functional;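 note: confirmatory dose–response counterscreen on Bfl-1, used to check hits from a UBC13 polyubiquitin inhibitor campaign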
T3 sequence (Q07440 whole entry): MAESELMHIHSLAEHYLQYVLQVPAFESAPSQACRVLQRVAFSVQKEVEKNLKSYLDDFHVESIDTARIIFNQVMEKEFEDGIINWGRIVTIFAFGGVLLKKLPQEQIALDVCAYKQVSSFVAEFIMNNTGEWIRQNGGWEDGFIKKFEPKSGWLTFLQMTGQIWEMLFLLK

[7] = target: T4, Ubiquitin-conjugating enzyme E2 N (Homo sapiens, UniProt P61088); type: functional
T4 sequence (P61088 whole entry): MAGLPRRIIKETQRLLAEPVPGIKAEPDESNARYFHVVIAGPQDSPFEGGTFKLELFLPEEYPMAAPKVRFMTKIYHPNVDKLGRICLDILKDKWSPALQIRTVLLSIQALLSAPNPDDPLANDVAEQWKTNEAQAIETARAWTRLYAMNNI

[8] = target: T4, Ubiquitin-conjugating enzyme E2 N; type: functional; remark: listed apart in the source
[9] = M. tuberculosis H37Rv growth inhibitors, H37Rv strain (AID 1626); type: functional
Estrogen receptor beta = Estrogen receptor beta (Homo sapiens, UniProt Q92731);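 note: recombinant ER-beta bound to coactivator SRC1 peptide in presence of estradiol agonist; inhibitors block coactivator peptide binding and lower the FRET signal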
Estrogen receptor beta, sequence (Q92731 whole entry): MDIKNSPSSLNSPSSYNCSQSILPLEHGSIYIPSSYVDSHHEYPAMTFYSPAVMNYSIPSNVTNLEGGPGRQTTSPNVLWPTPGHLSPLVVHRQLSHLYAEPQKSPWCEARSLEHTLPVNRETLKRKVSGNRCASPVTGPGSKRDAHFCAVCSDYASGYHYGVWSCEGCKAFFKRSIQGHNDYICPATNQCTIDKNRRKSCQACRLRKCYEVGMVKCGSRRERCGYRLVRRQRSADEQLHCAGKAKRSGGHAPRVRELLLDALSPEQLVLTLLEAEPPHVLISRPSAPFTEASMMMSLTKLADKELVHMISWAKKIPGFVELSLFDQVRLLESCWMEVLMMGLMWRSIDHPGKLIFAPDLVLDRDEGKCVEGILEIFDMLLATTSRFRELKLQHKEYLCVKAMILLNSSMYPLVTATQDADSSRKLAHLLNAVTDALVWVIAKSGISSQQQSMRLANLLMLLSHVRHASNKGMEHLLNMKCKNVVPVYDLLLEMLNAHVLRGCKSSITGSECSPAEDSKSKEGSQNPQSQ

Caspase-3 = target: T5, Caspase-3 (Homo sapiens, UniProt P42574); type: functional;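 note: Dose-response selectivity test against caspase-3 for candidate inhibitors of sentrin-specific proteases (SENPs)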
T5 sequence (P42574 whole entry): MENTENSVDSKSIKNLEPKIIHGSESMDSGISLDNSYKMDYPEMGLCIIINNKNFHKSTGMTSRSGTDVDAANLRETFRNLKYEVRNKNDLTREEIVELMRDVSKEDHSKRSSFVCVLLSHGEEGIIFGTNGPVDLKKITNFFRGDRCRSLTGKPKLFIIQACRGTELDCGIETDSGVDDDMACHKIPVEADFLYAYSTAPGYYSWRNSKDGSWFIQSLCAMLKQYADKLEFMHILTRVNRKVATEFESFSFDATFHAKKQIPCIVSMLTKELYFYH

[10] = target: T6, Sentrin-specific protease 7 (Homo sapiens, UniProt Q9BQF6); type: functional;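 note: Luminescence-based dose-response confirmation of ultra-high-throughput screening hits, measuring inhibition of SENP7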
T6 sequence (Q9BQF6 whole entry): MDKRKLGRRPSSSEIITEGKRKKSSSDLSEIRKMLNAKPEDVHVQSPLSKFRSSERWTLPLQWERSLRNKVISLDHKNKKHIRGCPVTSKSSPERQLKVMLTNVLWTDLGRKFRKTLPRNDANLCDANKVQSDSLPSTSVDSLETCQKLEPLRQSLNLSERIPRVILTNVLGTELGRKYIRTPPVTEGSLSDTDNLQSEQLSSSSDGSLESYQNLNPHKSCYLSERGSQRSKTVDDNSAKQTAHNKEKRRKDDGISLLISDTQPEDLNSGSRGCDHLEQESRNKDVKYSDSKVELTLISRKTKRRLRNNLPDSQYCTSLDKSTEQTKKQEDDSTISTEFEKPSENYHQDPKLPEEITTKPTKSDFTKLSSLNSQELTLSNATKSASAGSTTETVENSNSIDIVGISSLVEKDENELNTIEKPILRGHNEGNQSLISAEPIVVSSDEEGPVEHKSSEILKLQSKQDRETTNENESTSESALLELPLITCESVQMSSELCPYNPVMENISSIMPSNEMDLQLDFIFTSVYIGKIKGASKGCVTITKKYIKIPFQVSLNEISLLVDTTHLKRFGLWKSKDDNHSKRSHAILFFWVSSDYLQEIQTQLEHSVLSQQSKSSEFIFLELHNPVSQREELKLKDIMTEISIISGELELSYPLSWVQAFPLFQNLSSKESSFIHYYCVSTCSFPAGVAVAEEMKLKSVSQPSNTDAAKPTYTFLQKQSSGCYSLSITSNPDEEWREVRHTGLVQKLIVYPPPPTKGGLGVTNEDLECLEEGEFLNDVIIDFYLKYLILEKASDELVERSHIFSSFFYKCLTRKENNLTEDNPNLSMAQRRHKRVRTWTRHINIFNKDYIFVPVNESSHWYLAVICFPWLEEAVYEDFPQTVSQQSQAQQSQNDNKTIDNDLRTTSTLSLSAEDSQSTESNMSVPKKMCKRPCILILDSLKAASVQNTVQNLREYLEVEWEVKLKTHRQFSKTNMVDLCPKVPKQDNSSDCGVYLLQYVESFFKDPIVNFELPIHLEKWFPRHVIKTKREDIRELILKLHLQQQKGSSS

[11] = target: T7, Sentrin-specific protease 6 (Homo sapiens, UniProt Q9GZR1); type: functional;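 note: Luminescence-based dose-response confirmatory assay of SENP6 inhibition, following up an ultra-high-throughput screen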
T7 sequence (Q9GZR1 whole entry): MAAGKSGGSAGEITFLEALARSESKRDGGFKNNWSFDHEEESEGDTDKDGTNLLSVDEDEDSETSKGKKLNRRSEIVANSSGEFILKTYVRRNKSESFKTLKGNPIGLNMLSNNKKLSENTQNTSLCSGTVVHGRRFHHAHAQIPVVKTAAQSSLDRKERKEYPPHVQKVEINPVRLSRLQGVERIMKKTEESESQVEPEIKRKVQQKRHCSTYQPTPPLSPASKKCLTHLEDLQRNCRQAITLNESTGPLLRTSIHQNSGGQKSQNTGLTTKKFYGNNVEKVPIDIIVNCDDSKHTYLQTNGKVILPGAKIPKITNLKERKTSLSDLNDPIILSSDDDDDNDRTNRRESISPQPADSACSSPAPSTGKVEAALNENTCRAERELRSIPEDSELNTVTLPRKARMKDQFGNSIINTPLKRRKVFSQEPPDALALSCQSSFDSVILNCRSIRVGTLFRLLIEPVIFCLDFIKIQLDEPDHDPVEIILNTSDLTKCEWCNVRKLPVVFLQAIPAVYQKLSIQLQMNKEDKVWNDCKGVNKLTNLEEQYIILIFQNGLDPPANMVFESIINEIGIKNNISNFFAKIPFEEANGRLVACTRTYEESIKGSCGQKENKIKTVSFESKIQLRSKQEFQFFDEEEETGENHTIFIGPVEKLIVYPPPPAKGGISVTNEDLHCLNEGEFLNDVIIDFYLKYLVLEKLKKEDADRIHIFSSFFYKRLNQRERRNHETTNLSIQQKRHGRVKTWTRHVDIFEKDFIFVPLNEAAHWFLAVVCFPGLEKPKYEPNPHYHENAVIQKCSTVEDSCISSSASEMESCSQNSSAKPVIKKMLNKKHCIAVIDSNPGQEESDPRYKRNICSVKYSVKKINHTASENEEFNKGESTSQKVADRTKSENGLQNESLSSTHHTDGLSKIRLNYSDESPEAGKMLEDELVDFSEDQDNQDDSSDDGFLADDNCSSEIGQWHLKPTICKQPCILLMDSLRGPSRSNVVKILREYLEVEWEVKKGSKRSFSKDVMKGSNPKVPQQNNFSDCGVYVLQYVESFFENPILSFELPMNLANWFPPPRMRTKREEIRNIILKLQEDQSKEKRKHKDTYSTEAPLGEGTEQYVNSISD

[12] = target: T8, Sentrin-specific protease 8 (Homo sapiens, UniProt Q96LD8); type: functional;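 note: luminescence read-out of SENP8 inhibition, dose-response confirmation following an ultra-high-throughput screen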
T8 sequence (Q96LD8 whole entry): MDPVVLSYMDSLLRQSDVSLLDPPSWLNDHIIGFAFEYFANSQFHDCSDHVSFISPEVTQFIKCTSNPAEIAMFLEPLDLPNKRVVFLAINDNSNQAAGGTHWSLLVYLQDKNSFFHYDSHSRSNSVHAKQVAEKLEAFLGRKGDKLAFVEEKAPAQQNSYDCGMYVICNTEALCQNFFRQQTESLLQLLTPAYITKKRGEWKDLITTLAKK

[13] = target: NAD-dependent protein deacylase sirtuin-5, mitochondrial (Homo sapiens, UniProt Q9NXA8); test: SIRT5 desuccinylase inhibitors, dose response, biochemical, fluorescence imaging, cherry-pick, set 5 (AID 720591);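 note: desuccinylation of succinyl peptide AMC substrate read as fluorescence after trypsin release; potency of inhibitors that lower fluorescence and may act on trypsin instead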
NAD-dependent protein deacylase sirtuin-5, mitochondrial, sequence (Q9NXA8 whole entry): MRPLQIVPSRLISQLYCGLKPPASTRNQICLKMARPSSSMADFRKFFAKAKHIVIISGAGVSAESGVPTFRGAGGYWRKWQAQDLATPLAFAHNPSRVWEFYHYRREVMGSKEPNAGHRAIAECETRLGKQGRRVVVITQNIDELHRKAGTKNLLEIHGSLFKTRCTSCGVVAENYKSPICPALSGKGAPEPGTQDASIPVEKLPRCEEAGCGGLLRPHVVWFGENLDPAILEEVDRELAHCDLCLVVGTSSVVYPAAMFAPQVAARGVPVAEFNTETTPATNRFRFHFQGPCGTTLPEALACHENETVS

Protein Tat = Protein Tat (Human immunodeficiency virus type 1 group M subtype B (isolate HXB2)(HIV-1), UniProt P04608); type: functional;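 note: tat binding to TAR RNA read out by fluorescence polarization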
Protein Tat, sequence (P04608 whole entry): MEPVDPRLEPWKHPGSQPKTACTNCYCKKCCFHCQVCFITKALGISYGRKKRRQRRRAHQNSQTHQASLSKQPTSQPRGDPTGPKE

[14] = inhibitors of Vif binding to APOBEC3G peptide, primary screen, biochemical, TR-FRET, GST-Vif 1-94, biotin-A3G peptide, dose response retest (AID 1117319); type: functional;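 note: TR-FRET signal of purified GST-Vif binding a biotinylated A3G peptide; inhibitors lower the FRET signal by blocking Vif and A3G binding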

Mitogen-activated protein kinase 10, sequence (P53779 whole entry): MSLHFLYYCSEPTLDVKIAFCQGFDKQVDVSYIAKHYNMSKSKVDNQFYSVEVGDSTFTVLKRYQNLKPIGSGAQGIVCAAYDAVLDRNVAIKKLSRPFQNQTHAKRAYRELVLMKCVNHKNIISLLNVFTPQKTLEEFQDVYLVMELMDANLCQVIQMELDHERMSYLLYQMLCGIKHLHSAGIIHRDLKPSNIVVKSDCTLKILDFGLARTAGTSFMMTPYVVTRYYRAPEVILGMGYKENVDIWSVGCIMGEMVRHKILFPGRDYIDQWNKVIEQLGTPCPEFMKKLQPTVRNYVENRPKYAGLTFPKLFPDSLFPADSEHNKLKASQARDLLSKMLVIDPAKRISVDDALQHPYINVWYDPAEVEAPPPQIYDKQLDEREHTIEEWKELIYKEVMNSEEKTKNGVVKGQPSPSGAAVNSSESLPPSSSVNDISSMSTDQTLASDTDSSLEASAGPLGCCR

SMILES: Cc1ccc(C(=O)OCc2cc3ccccc3nc2O)cc1
- IC50 [1]: > 93.1 µM (not active)

SMILES: CC(=O)NC(=S)Nc1ccccc1C(=O)NC1CCCCC1
- IC50 [2]: > 67.6 µM (inactive)
- EC50 [3]: > 67.6 µM (inactive)

SMILES: COc1ccc(OC2C=CC(C#Cc3ccccc3)OC2CO)cc1 (configuration not stated)
- AC50 (Cytochrome P450 2C19): 3.98 µM (inconclusive)

SMILES: O=c1cc(CN2CCN(C/C=C/c3ccccc3)CC2)c2cc(O)ccc2o1
- EC50 [4]: < 0.1 µM (active)
- EC50 [5]: > 60 µM (not active)
- EC50 (cells): 0.101 µM (active)

SMILES: CC(=O)[C@@H]1[C@@H]2C(=O)N(c3ccc(F)c(Cl)c3)C(=O)[C@@H]2C2c3ccccc3C=CN21 (some centres not stated)
- IC50 [6]: > 100 µM (not active)

SMILES: O=C(CCNC(=O)c1ccccc1Cl)Nc1ccc(Br)c(C(F)(F)F)c1
- IC50 [2]: > 67.5 µM (inactive)
- EC50 [3]: > 67.5 µM (inactive)

SMILES: CN(C)CCCN(C(=O)c1ccc(S(=O)(=O)N2CCCCCC2)cc1)c1nc2cc3c(cc2s1)OCCO3
- EC50 [4]: < 0.1 µM (active)
- EC50 [5]: > 60 µM (not active)
- IC50 (Bcl-2-related protein A1): > 20 µM (inactive)
- IC50 [7]: 4.41 µM (active)
- IC50 [8]: 4.63 µM (active)
- EC50 (cells): 0.201 µM (active)

SMILES: O=C(NCc1ccco1)c1cc2n(n1)C(C(F)(F)F)CC(c1ccc(Cl)c(Cl)c1)N2 (configuration not stated)
- IC50 [9]: > 100 µM (active)
- EC50 [4]: 3.86 µM (active)
- EC50 [5]: 7.67 µM (active)

SMILES: CCN1CCC(C(N)=O)CC1
- IC50 (Estrogen receptor beta): > 50 µM (not active)

SMILES: Cc1c(NC(=O)c2ccc(NC(=O)C3CC3)cc2)cccc1C(=O)O
- IC50 (Caspase-3): 43.8 µM (active)
- IC50 [10]: 6.21 µM (active)
- IC50 [11]: 18.5 µM (active)
- IC50 [12]: 25.8 µM (active)
- AC50 [13]: 10.7 µM (active)

SMILES: O=C(N/N=C/c1ccc[nH]1)c1cccnc1
- IC50 (Protein Tat): > 100 µM (active)
- IC50 [14]: > 100 µM (active)
